Active and inactive are the calls of the source.
How the values were obtained:
Cytochrome P450 2C19 = Cytochrome P450 2C19 (Homo sapiens, UniProt P33261); assay: Cytochrome panel assay with activity outcomes. Panel member name: p450-cyp2c19 Compounds with AC50 equal or less than 10 uM are considered active; format: functional
Cytochrome P450 2C9 = Cytochrome P450 2C9 (Homo sapiens, UniProt P11712)
[1] = biological target: T1, Rac GTPase-activating protein 1 (Homo sapiens, UniProt Q9H0H5); assay: blockers of MgcRacGAP-driven Rac1 GTP hydrolysis – biochemical, ADP Hunter fluorescence, primary and confirmatory, confirmation (AID 624330); format: functional
T1 sequence (Q9H0H5 whole entry): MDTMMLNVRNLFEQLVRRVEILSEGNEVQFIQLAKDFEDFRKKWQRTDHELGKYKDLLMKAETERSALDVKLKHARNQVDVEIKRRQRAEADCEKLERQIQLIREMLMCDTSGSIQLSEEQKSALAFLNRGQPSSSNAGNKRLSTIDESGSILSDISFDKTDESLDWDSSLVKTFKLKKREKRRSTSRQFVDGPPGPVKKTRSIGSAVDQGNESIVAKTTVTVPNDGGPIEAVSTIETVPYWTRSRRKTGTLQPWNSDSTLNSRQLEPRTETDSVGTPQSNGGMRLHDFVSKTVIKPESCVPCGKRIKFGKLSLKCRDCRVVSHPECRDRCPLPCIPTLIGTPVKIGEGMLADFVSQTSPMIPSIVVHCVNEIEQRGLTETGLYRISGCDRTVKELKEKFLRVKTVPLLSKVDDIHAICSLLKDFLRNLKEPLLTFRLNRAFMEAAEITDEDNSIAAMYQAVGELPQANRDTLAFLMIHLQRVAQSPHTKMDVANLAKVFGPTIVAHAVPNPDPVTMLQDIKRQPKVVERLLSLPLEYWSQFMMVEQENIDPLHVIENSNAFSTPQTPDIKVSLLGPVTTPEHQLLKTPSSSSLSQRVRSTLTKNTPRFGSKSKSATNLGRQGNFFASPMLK

cells = format: functional
[2] = Luminescence Cell-Based Dose Response HTS to Identify Activators of Luciferase Translation or Activity in H4 […] Cells. [Related pubchem assays: 1829 (Project Summary), 1814 (Primary HTS)]; format: functional
H4 = assay: Luminescence Cell-Based Dose Response HTS to Identify Activators of 5'UTR Stem-Loop Driven Prion Protein mRNA Translation in H4 Neuroglioblastoma Cells. [Related pubchem assays: 1829 (Project Summary), 1814 (Primary HTS)]; format: functional; conditions: Homo sapiens
[3] = system: Streptococcus sp. 'group A'; assay: Streptococcus pyogenes SK(-)GAS viability under kanamycin – luminescence, BacTiterGlo, confirmation, counter-screen for streptokinase expression inhibitor project, dose response (AID 1900); format: functional, organism-based
Streptococcus = assay: GAS UMAA2166 growth inhibition – luminescence, BacTiterGlo, counter-screen for streptokinase expression inhibitor project, dose response (AID 1915); format: functional, organism-based;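 further: potency for reduction of bacterial viability or growth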
Streptokinase A = biological target: T2, Streptokinase A (Streptococcus pyogenes serotype M1, UniProt P10520); assay: viability-normalized secreted streptokinase activity reduction – plasminogen activation absorbance, OD405, dose response (AID 1914); format: functional, Streptococcus pyogenes M1 GAS;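 further: secreted streptokinase activity via plasminogen activation per viability signal from cell pellet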
T2 sequence (P10520 whole entry): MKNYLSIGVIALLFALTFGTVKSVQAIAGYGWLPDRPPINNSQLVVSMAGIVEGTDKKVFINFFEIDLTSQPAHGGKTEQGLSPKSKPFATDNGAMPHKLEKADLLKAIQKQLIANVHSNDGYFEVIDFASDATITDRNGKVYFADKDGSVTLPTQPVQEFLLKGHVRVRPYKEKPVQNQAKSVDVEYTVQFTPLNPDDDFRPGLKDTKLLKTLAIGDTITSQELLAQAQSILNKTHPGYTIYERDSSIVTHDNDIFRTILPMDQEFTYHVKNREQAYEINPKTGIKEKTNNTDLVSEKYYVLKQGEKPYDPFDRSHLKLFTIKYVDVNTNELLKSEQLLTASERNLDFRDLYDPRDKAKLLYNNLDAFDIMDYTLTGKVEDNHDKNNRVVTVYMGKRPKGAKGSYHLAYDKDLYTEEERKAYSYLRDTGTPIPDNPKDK

Cytochrome P450 2D6 = Cytochrome P450 2D6 (Homo sapiens, UniProt P10635);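 further: CYP2D6 member of a cytochrome P450 panel assay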
[4] = NIH3T3 cell viability loss – ATP luminescence, mouse fibroblasts, counter-screen, dose response (AID 2010); format: functional, cell-based;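 further: cells exposed to compound for about 90 hours before reading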
[5] = Trypanosoma cruzi growth suppression in host cells – NIH3T3 host cells, beta-gal luminescence, confirmation (AID 2044); format: functional, cell-based;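 further: intracellular parasites grown in NIH/3T3 mouse fibroblasts as host cells; luminescent beta-galactosidase reporter signal from transgenic T. cruzi replicating inside host cells; inhibitors lower the luminescence signal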
Cytochrome P450 3A4 = Cytochrome P450 3A4 (Homo sapiens, UniProt P08684);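 further: CYP3A4 tested as one member of a cytochrome P450 panel screen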
[6] = biological target: T3, Corticotropin-releasing factor receptor 2/Corticotropin-releasing factor-binding protein (Homo sapiens, UniProt P24387+Q13324); assay: Dose Response confirmation of uHTS hits for small molecule antagonists of the CRF-binding protein and CRF-R2 receptor complex.; format: functional; conditions: read-out: IC50_Mean
T3 sequence (Q13324 whole entry): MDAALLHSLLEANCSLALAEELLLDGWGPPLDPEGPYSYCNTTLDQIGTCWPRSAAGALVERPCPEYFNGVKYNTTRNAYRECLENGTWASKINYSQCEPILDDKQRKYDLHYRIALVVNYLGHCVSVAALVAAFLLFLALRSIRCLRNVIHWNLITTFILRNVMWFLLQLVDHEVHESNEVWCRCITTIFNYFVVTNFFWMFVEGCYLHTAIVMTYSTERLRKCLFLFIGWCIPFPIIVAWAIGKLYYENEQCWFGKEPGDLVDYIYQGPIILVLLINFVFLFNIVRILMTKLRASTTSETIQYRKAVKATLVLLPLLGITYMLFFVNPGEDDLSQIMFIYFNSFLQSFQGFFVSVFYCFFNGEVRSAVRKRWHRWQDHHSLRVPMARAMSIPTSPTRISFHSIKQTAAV
T3 sequence (P24387 whole entry): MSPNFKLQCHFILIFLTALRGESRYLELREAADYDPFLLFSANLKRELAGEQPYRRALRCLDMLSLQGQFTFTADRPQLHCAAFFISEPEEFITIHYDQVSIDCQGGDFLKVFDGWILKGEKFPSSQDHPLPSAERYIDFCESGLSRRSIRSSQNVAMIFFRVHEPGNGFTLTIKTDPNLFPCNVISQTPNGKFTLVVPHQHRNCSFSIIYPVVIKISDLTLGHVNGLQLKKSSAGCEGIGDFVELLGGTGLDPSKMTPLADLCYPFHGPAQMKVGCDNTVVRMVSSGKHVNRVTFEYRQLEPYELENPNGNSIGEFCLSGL

[7] = biological target: T3, Corticotropin-releasing factor receptor 2/Corticotropin-releasing factor-binding protein; assay: activators of CRF receptor 2 with binding protein – uHTS hits, confirmation (AID 602473); format: functional; conditions: read-out: EC50_Mean

Chain of Cytochrome P450 2C9 (P11712 whole entry): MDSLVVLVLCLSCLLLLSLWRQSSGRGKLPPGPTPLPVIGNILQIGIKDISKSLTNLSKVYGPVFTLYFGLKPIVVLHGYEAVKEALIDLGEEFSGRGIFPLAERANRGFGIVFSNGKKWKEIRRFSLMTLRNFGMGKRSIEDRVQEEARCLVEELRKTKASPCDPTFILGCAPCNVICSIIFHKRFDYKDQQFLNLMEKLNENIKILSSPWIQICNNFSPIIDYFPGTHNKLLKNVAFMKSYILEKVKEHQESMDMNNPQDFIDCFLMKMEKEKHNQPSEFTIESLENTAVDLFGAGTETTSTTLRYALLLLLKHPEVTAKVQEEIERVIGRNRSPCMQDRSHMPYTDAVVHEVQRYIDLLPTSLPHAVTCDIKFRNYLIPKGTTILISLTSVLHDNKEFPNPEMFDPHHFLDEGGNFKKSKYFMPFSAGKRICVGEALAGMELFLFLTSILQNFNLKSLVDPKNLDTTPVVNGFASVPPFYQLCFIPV
Chain of Cytochrome P450 3A4 (P08684 whole entry): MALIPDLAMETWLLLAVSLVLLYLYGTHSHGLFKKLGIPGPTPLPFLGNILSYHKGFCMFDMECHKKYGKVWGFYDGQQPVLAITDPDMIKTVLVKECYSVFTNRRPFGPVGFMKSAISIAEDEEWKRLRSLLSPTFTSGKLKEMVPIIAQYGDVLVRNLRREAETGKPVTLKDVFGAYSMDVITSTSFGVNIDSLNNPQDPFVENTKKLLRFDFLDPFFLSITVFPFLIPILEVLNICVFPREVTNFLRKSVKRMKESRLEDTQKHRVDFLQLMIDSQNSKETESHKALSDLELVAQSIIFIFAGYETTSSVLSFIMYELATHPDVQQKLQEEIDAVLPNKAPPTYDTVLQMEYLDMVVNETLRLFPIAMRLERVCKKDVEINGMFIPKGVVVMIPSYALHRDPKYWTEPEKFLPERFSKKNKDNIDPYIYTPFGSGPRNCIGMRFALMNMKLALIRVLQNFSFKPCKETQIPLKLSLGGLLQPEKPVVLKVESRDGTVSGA
Chain of Cytochrome P450 2C19 (P33261 whole entry): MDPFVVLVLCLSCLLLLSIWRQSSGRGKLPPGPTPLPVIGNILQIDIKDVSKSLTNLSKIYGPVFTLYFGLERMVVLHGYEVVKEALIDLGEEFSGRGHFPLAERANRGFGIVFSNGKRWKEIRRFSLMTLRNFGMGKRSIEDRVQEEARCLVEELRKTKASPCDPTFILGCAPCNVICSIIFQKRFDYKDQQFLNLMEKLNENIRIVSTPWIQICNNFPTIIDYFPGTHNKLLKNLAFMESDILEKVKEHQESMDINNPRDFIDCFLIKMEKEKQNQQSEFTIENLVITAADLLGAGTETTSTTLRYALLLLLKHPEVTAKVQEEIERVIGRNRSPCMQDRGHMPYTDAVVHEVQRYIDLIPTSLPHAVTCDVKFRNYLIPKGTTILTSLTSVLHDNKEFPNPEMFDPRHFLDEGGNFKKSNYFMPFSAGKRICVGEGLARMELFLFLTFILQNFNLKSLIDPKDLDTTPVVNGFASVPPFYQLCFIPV
Chain of Cytochrome P450 2D6 (P10635 whole entry): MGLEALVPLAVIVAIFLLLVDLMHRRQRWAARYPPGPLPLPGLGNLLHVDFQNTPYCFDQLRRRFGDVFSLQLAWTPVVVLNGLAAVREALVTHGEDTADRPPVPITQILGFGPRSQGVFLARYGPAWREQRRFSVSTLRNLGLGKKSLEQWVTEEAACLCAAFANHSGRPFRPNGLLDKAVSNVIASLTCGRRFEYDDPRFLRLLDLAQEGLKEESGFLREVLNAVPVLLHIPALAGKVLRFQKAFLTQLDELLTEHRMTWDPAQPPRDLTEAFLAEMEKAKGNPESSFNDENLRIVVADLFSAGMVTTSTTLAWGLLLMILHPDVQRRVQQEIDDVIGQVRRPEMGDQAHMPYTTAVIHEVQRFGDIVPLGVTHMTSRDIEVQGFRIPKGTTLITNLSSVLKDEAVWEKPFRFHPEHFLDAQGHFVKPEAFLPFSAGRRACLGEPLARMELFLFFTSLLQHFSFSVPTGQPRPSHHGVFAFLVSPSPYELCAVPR

CCCC1CCC(c2ccc(C(N)=O)cc2)CC1 (stereo not drawn)
AC50 (Cytochrome P450 2C19): inconclusive | AC50 (Cytochrome P450 2C9): 0.0158 µM (inconclusive)

O=C(CNC(=O)c1ccccn1)N/N=C/c1ccccc1
AC50 (Cytochrome P450 2C19; read-out: AC50): 17.8 µM (inconclusive)

O=C(NN=Cc1ccc(O)cc1O)c1ccccc1NS(=O)(=O)c1cccs1
IC50 [1]: 110 µM (active)

CCCCNC(=O)Nc1nnc(-c2ccc(Cl)cc2)o1
IC50 (cells): 13.2 µM (active)

CN(C)/C=N/c1ncc(C(=O)c2ccccc2)s1
EC50 [2]: 0.251 µM (active) | EC50 (H4): 119 µM (active)

CCOC(=O)c1cnn(-c2nc(-c3ccccc3)cs2)c1C(F)(F)F
EC50 [3]: 14.6 µM (active) | EC50 (Streptococcus): > 150 µM (not active) | EC50 (Streptokinase A): 15.6 µM (active)

NNc1nc(-c2ccccc2)c2cc(Br)ccc2n1
EC50 [3]: 10.1 µM (active) | EC50 (Streptococcus): 41.8 µM (active) | EC50 (Streptokinase A): > 150 µM (not active)

O=C(CCNc1cccc(Cl)c1)c1cccs1
AC50 (Cytochrome P450 2D6): 22.4 µM (inconclusive) | IC50 (cells): 20 µM (active) | AC50 (Cytochrome P450 2C9): 20 µM (inconclusive)

O=C1/C(=C/c2cccnc2)S/C(=N/Cc2ccccc2)N1Cc1ccccc1
EC50 [4]: > 60 µM (not active) | EC50 [5]: 1.66 µM (active) | EC50 [3]: 21.6 µM (active) | EC50 (Streptococcus): > 150 µM (not active) | EC50 (Streptokinase A): 14.7 µM (active)

COc1ccc(-c2cnnc(CCCn3ccnc3-c3ccccc3)n2)cc1
AC50 (Cytochrome P450 2C19; read-out: AC50): 7.94 µM (inconclusive) | AC50 (Cytochrome P450 2C9): 0.0126 µM (inconclusive)

CCC[C@@H]1C[C@@]1(CCC)C(NS(=O)(=O)c1cccc2cccnc12)c1ccc(Cl)cc1 (stereo partly drawn)
AC50 (Cytochrome P450 2D6): 39.8 µM (inconclusive)

O=c1c2ccccc2nc2oc3ccccc3n12
EC50 [2]: 0.123 µM (active) | EC50 (H4): 0.139 µM (active)

O=C(COc1ccc(Nc2ccccc2)cc1)OCC(=O)N1CCCCC1
IC50 [1]: 98.2 µM (active) | IC50 (cells): 2.49 µM (active)

CC(C)(C)c1ccc(OCCC(=O)OCC(=O)NC2CC2)cc1
IC50 (cells): 48.5 µM (active)

CCc1ccc(N(C(=O)CNC(=O)c2cccs2)C(C(=O)NC(C)(C)C)c2cc(OC)c(OC)c(OC)c2)cc1 (stereo not drawn)
AC50 (Cytochrome P450 2C19; read-out: AC50): 0.00794 µM (inconclusive) | AC50 (Cytochrome P450 2C9): 28.2 µM (inconclusive)

COc1cc(/C=N/NC(=O)c2ccc(N3CCCC3=O)cc2)ccc1O
IC50 [1]: 30.8 µM (active)

Fc1ccc(CSc2nnc(-c3ccccn3)o2)cc1
EC50 [2]: 0.103 µM (active) | EC50 (H4): 0.175 µM (active)

CCOC(=O)C(C)(C)n1nnc(-c2ccc([N+](=O)[O-])cc2)n1
IC50 (cells): 45.9 µM (active)

OC(COc1cccc2ccccc12)CN1CCN(c2cccc(Cl)c2)CC1 (stereo not drawn)
EC50 [3]: 15.5 µM (active) | EC50 (Streptococcus): 31 µM (active) | EC50 (Streptokinase A): 20.1 µM (active)

O/C(=C\C=N\c1ccccc1O)c1ccco1
IC50 (cells): 4.76 µM (active)

COC(=O)c1cc2c(ccc3ccccc32)oc1=O
IC50 (cells): 6.54 µM (active)

Fc1cccc2sc(N3CCCC3)nc12
IC50 (cells): > 50 µM (active)

O=C(c1cn(-c2ccccc2)nc1-c1cccs1)N1CCOCC1
AC50 (Cytochrome P450 2C19; read-out: AC50): 39.8 µM (inconclusive) | AC50 (Cytochrome P450 2C9): 39.8 µM (inconclusive)

CC(=O)n1c(COS(C)(=O)=O)nc2ccccc21
AC50 (Cytochrome P450 2D6): 5.01 µM (inconclusive) | AC50 (Cytochrome P450 3A4): 3.16 µM (inconclusive)

CCOC(=O)C(=NCCOC)NNc1cc(Cl)ccc1Cl
IC50 (cells): > 50 µM (active)

COc1ccc(OC(=O)c2cc(S(=O)(=O)N3CCCC3)ccc2Cl)cc1
IC50 [1]: 63 µM (active)

COc1cc(CNCc2cccs2)ccc1OCC(=O)NC(C)(C)C
AC50 (Cytochrome P450 2D6): 10 µM (inconclusive)

CCSc1ncc(/C=N/Nc2ccc(F)cc2)n1C
AC50 (Cytochrome P450 2C19; read-out: AC50): 0.0794 µM (inconclusive) | AC50 (Cytochrome P450 3A4): 1.58 µM (inconclusive)

Cc1cc(C)c(OCCCCN2CCC(C)CC2)c(Br)c1
IC50 [1]: 212 µM (active)

O=C(CCCC(=O)c1ccccc1)Nc1ccc(O)cc1
IC50 [1]: 15.8 µM (active)

O=C(NCc1ccc(C(F)(F)F)cc1)c1ccc2c(c1)S(=O)(=O)c1ccccc1C2=O
EC50 [3]: > 150 µM (not active) | EC50 (Streptococcus): > 150 µM (not active) | EC50 (Streptokinase A): > 150 µM (not active)

CC1CCN(CCc2nc3cc(NC(=O)NC4CCCCC4)ccc3n2C)CC1
AC50 (Cytochrome P450 2D6): 25.1 µM (inconclusive)

O=S(=O)(Nc1nc2ccccc2nc1Cl)c1ccc2ccccc2c1
EC50 [3]: 9.62 µM (active) | EC50 (Streptococcus): > 150 µM (not active) | EC50 (Streptokinase A): 15.1 µM (active)

Cc1cc(OCc2ccc([N+](=O)[O-])cc2)c2c3c(c(=O)oc2c1)CCCC3
AC50 (Cytochrome P450 2D6): 3.16 µM (inconclusive) | AC50 (Cytochrome P450 3A4): 2.82 µM (inconclusive)

CCOC(=O)c1[nH]c(COC(=O)CCOc2ccccc2OC)c(C(=O)OCC)c1C
AC50 (Cytochrome P450 2D6): 15.8 µM (inconclusive)

COc1ccc(COC(=O)N/N=C2/C[C@@H](O)[C@@H](O)[C@@H]3[C@@H]4C(=O)N(c5cccc(Oc6ccccc6)c5)C(=O)[C@H]4CC[C@H]23)cc1
AC50 (Cytochrome P450 2D6): 2.51 µM (inconclusive)

Clc1cc(Br)ccc1OCCOCCN1CCCC1
IC50 [1]: 135 µM (active) | EC50 [4]: > 60 µM (not active) | EC50 [5]: 1.46 µM (active)

CCN(CC)c1ccc(NC(=O)COC(=O)CCC(=O)c2cccs2)cc1
IC50 [1]: 74.4 µM (active)

COc1ccc(/C=C/c2ccc3cccc(O)c3n2)cc1Br
EC50 [3]: 0.796 µM (active) | EC50 (Streptococcus): 13.5 µM (active) | EC50 (Streptokinase A): > 150 µM (not active)

C/C(=N\NC(=O)c1cc2ccccc2cc1O)c1cccs1
EC50 [4]: > 60 µM (not active) | EC50 [5]: 44.7 µM (active) | EC50 [3]: 18.3 µM (active) | EC50 (Streptococcus): 59.6 µM (active) | EC50 (Streptokinase A): > 150 µM (not active)

O=C(Oc1ccccc1)c1ccc(NC(=O)c2ccco2)cc1
IC50 [6]: > 47.1 µM (inactive) | EC50 [7]: > 53 µM (inactive) | IC50 (cells): 4.4 µM (active)

CC(=O)Nc1cccc(-c2csc(NCc3ccccc3)n2)c1
IC50 [1]: 65 µM (active)

COc1ccc(-c2cc(=O)oc(-c3cccc(C)c3)n2)cc1
IC50 (cells): 35.9 µM (active)

N#CCSc1nc2ccc(N3CCOCC3)cc2c(=O)n1CCc1ccccc1
EC50 [3]: 7.19 µM (active) | EC50 (Streptococcus): 13.1 µM (active) | EC50 (Streptokinase A): > 150 µM (not active)

Reference: ChEMBL document CHEMBL1201862, “PubChem BioAssay data set” (2004)
